Laboratory results reported in ChEMBL document CHEMBL1126236, “Synthesis and muscarinic receptor activity of ester derivatives of 2-substituted 2-azabicyclo[2.2.1]heptan-5-ol and -6-ol” (J Med Chem, 1992).

Assays:
[1] = target: T1, Muscarinic acetylcholine receptor M1 (Rattus norvegicus, UniProt P08482); assay: Inhibition of [3H]QNB binding to Muscarinic acetylcholine receptor M1 transfected with CHO cell; assay type: cell-based
T1 sequence (P08482 whole entry): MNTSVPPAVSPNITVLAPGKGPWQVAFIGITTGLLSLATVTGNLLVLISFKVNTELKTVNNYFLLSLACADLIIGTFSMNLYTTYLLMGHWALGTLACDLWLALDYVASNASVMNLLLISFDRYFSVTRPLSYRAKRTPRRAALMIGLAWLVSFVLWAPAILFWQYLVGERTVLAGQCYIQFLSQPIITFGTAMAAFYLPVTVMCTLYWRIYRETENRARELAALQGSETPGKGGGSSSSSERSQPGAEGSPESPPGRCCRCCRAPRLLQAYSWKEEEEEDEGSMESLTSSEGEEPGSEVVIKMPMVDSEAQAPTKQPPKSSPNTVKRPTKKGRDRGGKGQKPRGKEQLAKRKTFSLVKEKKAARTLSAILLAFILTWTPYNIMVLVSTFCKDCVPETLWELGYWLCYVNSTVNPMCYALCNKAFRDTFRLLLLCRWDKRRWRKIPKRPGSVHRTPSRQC

[2] = target: Muscarinic acetylcholine receptor; assay: Inhibition of [3H]QNB binding to muscarinic receptor of rat brain membrane preparation.
[3] = target: Muscarinic acetylcholine receptor; assay: Inhibition of [3H]- Oxo-M binding to muscarinic receptor of rat brain membrane preparations
[4] = target: Muscarinic acetylcholine receptor; assay: Inhibition of [3H]QNB binding to muscarinic receptor of rat heart membrane preparation.
[5] = target: T2, Muscarinic acetylcholine receptor M3 (Rattus norvegicus, UniProt P08483); assay: Inhibition of [3H]QNB binding to Muscarinic acetylcholine receptor M3 transfected with CHO cell; assay type: cell-based
[6] = target: T2, Muscarinic acetylcholine receptor M3; assay: Inhibition of [3H]QNB binding to m3 receptor transfected with CHO cell; assay type: cell-based

T2 sequence (P08483 whole entry): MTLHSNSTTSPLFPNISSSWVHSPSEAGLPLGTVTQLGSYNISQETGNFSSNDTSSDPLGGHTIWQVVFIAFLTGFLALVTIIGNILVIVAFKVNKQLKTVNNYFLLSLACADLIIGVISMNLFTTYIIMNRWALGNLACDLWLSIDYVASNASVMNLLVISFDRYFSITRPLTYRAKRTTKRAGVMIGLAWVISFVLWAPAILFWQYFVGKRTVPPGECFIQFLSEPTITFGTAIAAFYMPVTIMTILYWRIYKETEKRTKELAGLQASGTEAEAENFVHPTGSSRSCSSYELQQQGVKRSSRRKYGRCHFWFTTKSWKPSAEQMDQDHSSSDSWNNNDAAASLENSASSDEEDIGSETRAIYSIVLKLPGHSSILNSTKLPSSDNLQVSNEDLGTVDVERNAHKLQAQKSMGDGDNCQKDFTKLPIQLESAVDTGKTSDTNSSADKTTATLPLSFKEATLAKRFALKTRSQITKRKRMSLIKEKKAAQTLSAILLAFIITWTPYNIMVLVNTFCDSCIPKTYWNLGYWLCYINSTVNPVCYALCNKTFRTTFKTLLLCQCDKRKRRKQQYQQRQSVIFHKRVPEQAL

Question: `CC(=O)O[C@@H]1CC2CC1CN2C` (stereo partly specified) was tested. Which Ki [1] did it give?
Answer: 21.9 µM

Question: And the Ki [2]?
Answer: 11.5 µM

Question: And the Ki [3]?
Answer: 1.43 µM

Question: And the Ki [4]?
Answer: 17.4 µM

Question: And the Ki [5]?
Answer: 27.7 µM

Question: How did the Ki [1] turn out when `CC(=O)O[C@@H]1CC2CC1N(Cc1ccccc1)C2` (stereo partly specified) was run?
Answer: 2.26 µM

Question: What about the Ki [2] of the same compound?
Answer: 20 µM

Question: What about the Ki [3] of the same compound?
Answer: 2.57 µM

Question: What about the Ki [4] of the same compound?
Answer: 15.3 µM

Question: What about the Ki [5] of the same compound?
Answer: 47.6 µM

Question: For `CN1CC2CC1C[C@H]2OC(=O)C(C)(c1ccccc1)c1ccccc1` (stereo partly specified), which Ki [1] is on record?
Answer: 0.000423 µM

Question: And the Ki [4]?
Answer: 0.00118 µM

Question: And the Ki [5]?
Answer: 0.000522 µM

Question: How did the Ki [1] turn out when `CC(=O)O[C@H]1CC2CC1N(Cc1ccccc1)C2` (stereo partly specified) was run?
Answer: 7.01 µM

Question: What about the Ki [2] of the same compound?
Answer: 6.63 µM

Question: And the Ki [3]?
Answer: 7.21 µM

Question: What about the Ki [4] of the same compound?
Answer: 15.1 µM

Question: And the Ki [6]?
Answer: 18.8 µM

Question: With `CN1CC2CC1C[C@@H]2OC(=O)C(C)(c1ccccc1)c1ccccc1` (stereo partly specified) as the compound, how does the Ki [1] read?
Answer: 0.000876 µM

Question: And the Ki [4]?
Answer: 0.00407 µM

Question: What about the Ki [5] of the same compound?
Answer: 0.000533 µM

Question: How did the Ki [1] turn out when `CC(=O)OC1CC2CC1CN2Cc1ccccc1` (stereo unspecified) was run?
Answer: 18.9 µM

Question: And the Ki [2]?
Answer: 14.8 µM

Question: What about the Ki [3] of the same compound?
Answer: 1.56 µM

Question: What about the Ki [4] of the same compound?
Answer: 10.3 µM

Question: And the Ki [5]?
Answer: 26.9 µM

Question: Which Ki [1] does the source give for `CC(=O)OC1CC2CC1N(C)C2` (stereo unspecified) here?
Answer: 21.6 µM

Question: And the Ki [2]?
Answer: 17.5 µM

Question: And the Ki [3]?
Answer: 5.37 µM

Question: And the Ki [4]?
Answer: 24.9 µM

Question: What about the Ki [5] of the same compound?
Answer: 28 µM

Question: Which Ki [1] does the source give for `CC(=O)O[C@H]1CC2CC1CN2C` (stereo partly specified) here?
Answer: 17.5 µM

Question: What about the Ki [2] of the same compound?
Answer: 9.84 µM

Question: What about the Ki [3] of the same compound?
Answer: 0.23 µM

Question: What about the Ki [4] of the same compound?
Answer: 10.1 µM

Question: And the Ki [5]?
Answer: 12 µM
